Data: patent US11192900B2, “Substituted 1,6-dihydropyridinones and 1,2-dihydroisoquinolinones as bet inhibitors” (NUVATION BIO INC., priority 2018, dated 2021)
Read-outs that look alike come from different tables or passages of the source.

Experiments:
[1] = system: MV-4-11 human acute myeloid leukemia cell line; experiment: Second cell viability assay in MV-4-11 (Cell Titer-Glo); type: cell-based; conditions: MV4-11, Cell Titer-Glo, 72 hrs, read-out: Cell Viability IC50 in MV4-11 cells
Protocol: The effects of test compounds were studied in a second cell viability assay in the MV-4-11 human acute myeloid leukemia cell line. The cells were harvested during the logarithmic growth period and counted. Cells were seeded at a count of 15000 cells per well/100 μl. After seeding, cells were incubated at 37° C., 5% CO2 for 1 hr. Cells were treated with test compounds at 8 concentrations within a desired concentration range (e.g. 5 nM-[…]) for generation of dose response curves by preparing serial dilutions of the test compound in DMSO which were further diluted with culture medium and then added to each well. The plate was further incubated for another 72 hrs in a humidified incubator at 37° C. and 5% CO2. The assay was terminated by addition of Cell Titer-Glo reagent (Promega, Madison, Wis.) at ¼ the volume of total medium per well. Contents were mixed, the plate was incubated for 10 min at room temperature and luminescence was measured. Cell viability data were plotted using GraphPad Prism (GraphPad Software, Inc., San Diego, Calif.). In addition, a nonlinear regression model with a sigmoidal dose response and variable slope within GraphPad Prism was used to calculate the IC50 value of individual test compounds.

[2] = target: BRD4-2 (Homo sapiens (Human), UniProt O60885); experiment: Bromodomain and Extraterminal Domain (BET) Binding Assay; conditions: Table 3; read-out: BRD4-2 IC50
Protocol: (§1) The bromodomain binding assays were performed by Reaction Biology Corp., Malvern, Pa., USA (www.reactionbiology.com). The BET binding assays were conducted in 384 well microplates in assay buffer (50 mM HEPES-HCl, pH 7.5, 100 mM NaCl, 1 mg/ml BSA, 0.05% CHAPS, and 0.5% DMSO) with compounds added as DMSO stocks at a single concentration or with 10-point dose response titrations. BET protein or assay buffer were delivered to the appropriate wells of the microplate. Test compound was then delivered by acoustic technology via a Labcyte Echo550 liquid handler. The microplate was centrifuged for 5 min and pre-incubated for 30 min at RT with gentle shaking. The ligand (histone H4 peptide (1-21) K5/8/12/16Ac-biotin) was delivered and the microplate was again centrifuged for 5 min and allowed to incubate for 30 min at RT with gentle shaking. Donor beads were then added in the absence of light and the microplate was centrifuged and gently shaken. After 5 min, acceptor beads were added in the absence of light and the microplate was centrifuged and gently shakenin the dark for 60 min. The microplate was read using a Perkin Elmer EnSpire Alpha plate reader (λEx/λEm=680/520-620 nm). Percent inhibition was calculated relative to positive and negative controls on a per plate basis. For titration experiments, IC50 values were determined by fitting the percent inhibition versus compound concentration.

[3] = target: BRD4-1 (Homo sapiens (Human), UniProt O60885); experiment: as above; conditions: Table 3; read-out: BRD4-1 IC50
Protocol: as §1

[4] = system: IEC-6 rat intestinal epithelial cell line; experiment: IEC-6 cell viability, Protocol B (toxicity to non-cancerous cells); type: cell-based; conditions: IEC-6, 4000 cells per well, 48 hrs
Protocol: The effects of test compounds were also studied in the IEC-6 rat intestinal epithelial cell line to assess potential toxicity to non-cancerous cells. The cells were harvested during the logarithmic growth period and counted. In Protocol A, cells were seeded at a count of 3000 cells per well/100 μl in a 96-well plate. After seeding, cells were incubated at 37° C., 5% CO2 for 24 hr. Cells were treated with test compounds at 8 concentrations within a desired concentration range (e.g. 5 nM-10 μM) for generation of dose response curves by preparing serial dilutions of the test compound in DMSO which were further diluted with culture medium and then added to each well. The plate was further incubated for another 96 hrs in humidified incubator at 37° C. and 5% CO2. The assay was terminated by addition of resazurin (# R7017, Sigma). The plate was incubated for 4 hr at 37° C., 5% CO2 and fluorescence was measured using excitation and emission wavelengths of 535 and 590 nm, respectively. Cell viability data were plotted using GraphPad Prism (GraphPad Software, Inc., San Diego, Calif.). In addition, a nonlinear regression model with a sigmoidal dose response and variable slope within GraphPad Prism was used to calculate the IC50 value of individual test compounds. Protocol B was the same as Protocol A except that cells were seeded at a count of 4000 cells per well/100 μl in a 96-well plate, and the incubation with test compound was for 48 hrs instead of 96 hrs.

[5] = system: 22Rv1 cells; experiment: 22Rv1 cell proliferation assay with wash-off or mock wash-off; type: cell-based, human
Protocol: A 22Rv1 cell proliferation assay was used to assess durability of test compound effects after transient exposure of test compound to cells. 22Rv1 cells were seeded at 3000 cells per well/100 μl in a 96-well plate and incubated with test compounds at specified dilutions for 2 hr at 37° C. and 5% CO2. Following the incubation, test compound was washed off and replacement culture medium without test compound was added. Wash-off was performed by three PBS washes. The cells were incubated for an additional 96 hr at 37° C. and 5% CO2. In parallel, a mock wash-off was performed with cells that were treated identically except that the replacement culture medium contained test compound. The plate was incubated for 4 hr at 37° C., 5% CO2 and fluorescence was measured using excitation and emission wavelengths of 535 and 590 nm, respectively. Cell viability data were plotted using GraphPad Prism (GraphPad Software, Inc., San Diego, Calif.). In addition, a nonlinear regression model with a sigmoidal dose response and variable slope within GraphPad Prism was used to calculate the IC50 value of individual test compounds.

[6] = system: 22Rv1 human prostate carcinoma cell line; experiment: Cell viability assay (resazurin); type: cell-based; conditions: 22Rv1, resazurin, 72 hrs
Protocol: The effects of test compounds were also studied in the 22Rv1 human prostate carcinoma and MDA-MB-231 human breast adenocarcinoma cell lines. The cells were harvested during the logarithmic growth period and counted. Cells were seeded at a count of 3000 cells (22Rv1) or 5000 cells (MDA-MB-231) per well/100 μl in a 96-well plate. After seeding, cells were incubated at 37° C., 5% CO2 for 24 hr. Cells were treated with test compounds at 8 concentrations within a desired concentration range (e.g. 5 nM-10 μM) for generation of dose response curves by preparing serial dilutions of the test compound in DMSO which were further diluted with culture medium and then added to each well. The plate was further incubated for another 72 hrs (22Rv1) or 96 hrs (MDA-MB-231) in humidified incubator at 37° C. and 5% CO2. The assay was terminated by addition of resazurin (# R7017, Sigma). The plate was incubated for 4 hr at 37° C., 5% CO2 and fluorescence was measured using excitation and emission wavelengths of 535 and 590 nm, respectively. Cell viability data were plotted using GraphPad Prism (GraphPad Software, Inc., San Diego, Calif.). In addition, a nonlinear regression model with a sigmoidal dose response and variable slope within GraphPad Prism was used to calculate the IC50 value of individual test compounds.

[7] = system: c-Myc; experiment: Measurement of c-Myc suppression after washoff (Western blot); type: cell-based, human; conditions: MV4-11, 2 μM for 2 hr, washed, further 6 hr
Protocol: MV4-11 cells were incubated with 2 μM of JQ1, mivebresib or a test compound for 2 hr. The cells were then washed twice with fresh culture medium and further cultured for another 6 hr. Cells were extracted with SDS sample buffers and then subjected to Western blot analysis to measure c-Myc. Compounds 2, 3, 12, 17, 409, 411 and 412 were tested in these assays.

| Structure (SMILES) | IC50 [2] | IC50 [3] | IC50 ([1]; Homo sapiens) | IC50 ([4]; Rattus norvegicus) | c-Myc suppression activity after washoff [7] | other results |
| --- | --- | --- | --- | --- | --- | --- |
| CCS(=O)(=O)Nc1ccc(Oc2ccc(F)cc2F)c(-n2ccc(=O)c3ccccc32)c1 [Compound 709, N-(4-(2,4-difluorophenoxy)-3-(4-oxoquinolin-1(4H)-yl)phenyl)ethanesulfonamide] | 93 nM | 1210 nM |  |  |  | IC50 [1]: 979 nM; IC50 [4]: 2900 nM |
| Cc1sc2c(c1C)C(c1ccc(Cl)cc1)=N[C@@H](CC(=O)OC(C)(C)C)c1nnc(C)n1-2 [JQ1, reference compound] |  |  |  |  |  | IC50 ([5]; 22Rv1, 2 hr exposure, three PBS washes, additional 96 hr without compound, read-out: Wash-off IC50): > 10000 nM; IC50 ([5]; 22Rv1, 2 hr, replacement medium with test compound, additional 96 hr, read-out: Mock wash-off IC50): 71 nM |
| CCS(=O)(=O)Nc1ccc(Oc2c(C)cc(F)cc2C)c(-n2cc(C)c(=O)c3ccccc32)c1 [Compound 570, N-(4-(4-fluoro-2,6-dimethylphenoxy)-3-(3-methyl-4-oxoquinolin-1(4H)-yl)phenyl)ethanesulfonamide] | 11 nM | 1370 nM | 526 nM | 2860 nM |  | IC50 [6]: 1270 nM |
| C=CC(=O)Nc1ccc(Nc2c(C)cccc2C)c(-c2cn(C)c(=O)c3cc(C(=O)NCC)sc23)c1 [Compound 585, 7-(5-acrylamido-2-(2,6-dimethylphenylamino)phenyl)-N-ethyl-5-methyl-4-oxo-4,5-dihydrothieno[3,2-c]pyridine-2-carboxamide] | 43 nM | 5070 nM | 221 nM |  | less durable activity |  |
| C=CC(=O)Nc1ccc(Oc2c(C)cccc2C)c(-c2cn(C)c(=O)c3cc(C(=O)NCC)sc23)c1 [Compound 412, 7-(5-acrylamido-2-(2,6-dimethylphenoxy)phenyl)-N-ethyl-5-methyl-4-oxo-4,5-dihydrothieno[3,2-c]pyridine-2-carboxamide] | 4 nM | 1740 nM | 25 nM |  | less durable or no suppression activity |  |
| C=CC(=O)Nc1ccc(Oc2ccc(F)cc2F)c(-c2cn(C)c(=O)cc2OC)c1 [Compound 407, N-(4-(2,4-difluorophenoxy)-3-(4-methoxy-1-methyl-6-oxo-1,6-dihydropyridin-3-yl)phenyl)acrylamide] | 11 nM | 183 nM | 51 nM | 693 nM | less durable activity |  |
| C=CC(=O)Nc1ccc(Oc2ccc(OC)cc2)c(-c2cn(C)c(=O)c3ccccc23)c1 [Compound 409, N-(4-(4-methoxyphenoxy)-3-(2-methyl-1-oxo-1,2-dihydroisoquinolin-4-yl)phenyl)acrylamide] | 75 nM | 479 nM | 253 nM |  | rebound in c-Myc expression |  |
| C=CC(=O)Nc1ccc(Oc2c(C)cc(F)cc2C)c(-c2cn(C)c(=O)c3cc(C(=O)NCC)sc23)c1 [Compound 588, 7-(5-acrylamido-2-(4-fluoro-2,6-dimethylphenoxy)phenyl)-N-ethyl-5-methyl-4-oxo-4,5-dihydrothieno[3,2-c]pyridine-2-carboxamide] | 6 nM | 2850 nM | 82 nM |  | less durable activity |  |
| C=CC(=O)Nc1ccc(Oc2c(C)cccc2C)c(-c2cc(NC)c(=O)n(C)c2)c1 [Compound 411, N-(4-(2,6-dimethylphenoxy)-3-(1-methyl-5-(methylamino)-6-oxo-1,6-dihydropyridin-3-yl)phenyl)acrylamide] | 10 nM | 347 nM | 74 nM |  | less durable or no suppression activity |  |
| CC(=O)Nc1ccc(Oc2c(C)cc(F)cc2C)c(-n2cc(C)c(=O)c3ccccc32)c1 [Compound 710, N-(4-(4-fluoro-2,6-dimethylphenoxy)-3-(3-methyl-4-oxoquinolin-1(4H)-yl)phenyl)acetamide] | 292 nM | 8150 nM | 2460 nM | 7550 nM |  | IC50 [6]: 6660 nM |
| CCS(=O)(=O)Nc1ccc(Oc2ccc(F)cc2F)c(-n2cc(Cl)c(=O)c3ccccc32)c1 [Compound 661, N-(3-(3-chloro-4-oxoquinolin-1(4H)-yl)-4-(2,4-difluorophenoxy)phenyl)ethanesulfonamide] | 5 nM | 20 nM | 71 nM | 273 nM |  |  |
| C=CS(=O)(=O)Nc1ccc(Oc2ccc(F)cc2F)c(-c2cn(C)c(=O)cc2OC)c1 [Compound 406, N-(4-(2,4-difluorophenoxy)-3-(4-methoxy-1-methyl-6-oxo-1,6-dihydropyridin-3-yl)phenyl)ethenesulfonamide] | 3 nM | 22 nM | 114 nM |  |  | IC50 ([5]; Homo sapiens, 22Rv1, 2 hr exposure, three PBS washes, additional 96 hr without compound, read-out: Wash-off IC50): 415 nM; IC50 ([5]; Homo sapiens, 22Rv1, 2 hr, replacement medium with test compound, additional 96 hr, read-out: Mock wash-off IC50): 255 nM |
